For data set [1], the target named is T1, Protein cereblon/B-cell lymphoma 6 protein (Homo sapiens, UniProt Q96SW2+P41182). Nature of the data set: PROTAC activity at CRBN/BCL6 in BCL6-dependent human SU-DHL-4 cells assessed as induction of BCL6 degradation by measuring degradation rate at 1 uM incubated for 48 hrs by Western blot analysis relative to control. Format: cell-based.
Data set [2] concerns SUD4. Nature of the data set: Antiproliferative activity against BCL6-dependent human SU-DHL-4 cells assessed as inhibition of cell growth at 1 uM measured after 6 days by MTT assay relative to control. It is filed as functional. The note with it: SU-DHL-4, 144 h, time 6 day. (Tetrazolium assays rely on reduction of a dye to a coloured formazan, in cell work by metabolically active cells.)

The target in data set [3] is T1, Protein cereblon/B-cell lymphoma 6 protein. Nature of the data set: PROTAC activity at CRBN/BCL6 in BCL6-dependent human SU-DHL-4 cells assessed as induction of BCL6 degradation by measuring degradation rate at 10 uM incubated for 48 hrs by Western blot analysis relative to control. Format: cell-based. In general terms: Immunoblotting shows a protein as a band on a membrane.

The subject of data set [4] is SUD4. Description: Antiproliferative activity against BCL6-dependent human SU-DHL-4 cells assessed as inhibition of cell growth at 10 uM measured after 6 days by MTT assay relative to control. Format: functional. The note with it: SU-DHL-4, 144 h, time 6 day.
The nature of data set [5]: Cytotoxicity against HEK293T cells assessed as inhibition in cell growth measured after 6 days by MTT assay. It is filed as toxicity, cell-based, HEK-293T. As to conditions: human, HEK293T cells.
In the next data set the test system is OCI-Ly1. Nature of the data set: Antiproliferative activity against BCL6-dependent human OCI-Ly1 cells assessed as inhibition in cell growth measured after 6 days by MTT assay. The note with it: OCI-Ly1, 144 h.
In data set [6] the target is T1, Protein cereblon/B-cell lymphoma 6 protein. Nature of the data set: PROTAC activity at CRBN/BCL6 in human DOHH-2 cells assessed as induction of BCL6 degradation by measuring maximal efficacy incubated for 48 hrs by Western blot analysis relative to control. Format: cell-based.
The target is the same in data set [7]. Description: PROTAC activity at CRBN/BCL6 in human DOHH-2 cells assessed as induction of BCL6 degradation incubated for 48 hrs by Western blot analysis. Format: cell-based.
Data set [8] can be described thus: Cytotoxicity against human WI-38 VA13 cells assessed as inhibition in cell growth measured after 6 days by MTT assay. Format: toxicity, cell-based. The note with it: WI-38 VA13 cells.
Data set [9] deals with T1, Protein cereblon/B-cell lymphoma 6 protein. Nature of the data set: PROTAC activity at CRBN/BCL6 in human SU-DHL-4 cells assessed as induction of BCL6 degradation incubated for 48 hrs by Western blot analysis. Format: cell-based.
The test system of a further data set is DOHH-2. Nature of the data set: Antiproliferative activity against BCL6-dependent human DOHH-2 cells assessed as inhibition in cell growth measured after 6 days by MTS assay. The note with it: DOHH-2, 144 h.
Data set [10] deals with SUD4. Description: Antiproliferative activity against BCL6-dependent human SU-DHL-4 cells assessed as inhibition in cell growth measured after 6 days by MTT assay. As to conditions: SU-DHL-4, 144 h.
Data set [11] concerns the target T1, Protein cereblon/B-cell lymphoma 6 protein. Description: PROTAC activity at CRBN/BCL6 in human SU-DHL-4 cells assessed as induction of BCL6 degradation by measuring maximal efficacy incubated for 48 hrs by Western blot analysis relative to control. It is filed as cell-based.
The subject of another data set is SU-DHL-6. Nature of the data set: Antiproliferative activity against BCL6-dependent human SU-DHL-6 cells assessed as inhibition in cell growth measured after 6 days by MTT assay. As to conditions: SU-DHL-6, 144 h.
The target in data set [12] is B-cell lymphoma 6 protein (Homo sapiens, UniProt P41182). Nature of the data set: Binding affinity to fluorescent labeled recombinant BCL-6 BTB domain (unknown origin) assessed as dissociation constant incubated for 10 mins by MST analysis.
For data set [13], the system named is SUD4. Description: Upregulation of p27 protein level in human SU-DHL-4 cells at 5 uM preincubated for 48 hrs followed by compound elution and measured after 72 hrs by Western blot analysis. It is filed as functional, cell-based.
Data set [14] concerns SUD4. Nature of the data set: Upregulation of p21 protein level in human SU-DHL-4 cells at 5 uM preincubated for 48 hrs followed by compound elution and measured after 72 hrs by Western blot analysis. Format: functional, cell-based.

pIC50, pKd: −log10 of the molar value. Calls of active or inactive are those of the source. No cut-off for these calls is given here.

For orientation: inhibition means the relative decrease from the control value, in per cent. The IC50 is the concentration needed to halve the response being measured. The pIC50 is −log10 of the IC50, conventionally taken in molar units. The Emax is the greatest response seen or fitted, relative to the assay's reference. A word on the DC50: it is the concentration giving 50% degradation. In general, pKd refers to −log10 of the Kd, conventionally taken in molar units.

T1 sequence (Q96SW2 whole entry, looked up, other chains not shown): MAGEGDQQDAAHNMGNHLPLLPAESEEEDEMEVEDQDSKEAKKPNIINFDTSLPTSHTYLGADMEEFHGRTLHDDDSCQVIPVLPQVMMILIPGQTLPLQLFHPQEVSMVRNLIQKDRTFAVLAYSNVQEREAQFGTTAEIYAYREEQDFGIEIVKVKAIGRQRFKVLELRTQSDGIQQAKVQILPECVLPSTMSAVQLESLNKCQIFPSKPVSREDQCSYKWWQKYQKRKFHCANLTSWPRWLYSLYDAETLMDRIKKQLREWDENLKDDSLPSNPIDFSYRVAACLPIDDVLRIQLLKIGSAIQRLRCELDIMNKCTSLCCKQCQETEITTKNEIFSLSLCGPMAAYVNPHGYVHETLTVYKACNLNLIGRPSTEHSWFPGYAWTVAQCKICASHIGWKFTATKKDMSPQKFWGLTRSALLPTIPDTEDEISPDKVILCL

For `COc1cc(Nc2nc(N3CCN(C(=O)CCOCC#Cc4cccc5c4CN(C4CCC(=O)NC4=O)C5=O)CC3)ncc2F)ccc1NC(=O)c1ccc(C2=CCCC2)s1` (configuration not stated), the Activity in data set [1] is 27.4%; in data set [3], 73.2%. The inhibition at 1 µM in the data set on SUD4 [2] was found to be 5.7%. Further, the inhibition at 10 µM with SUD4 [4] is 98%.
For `COc1cc(Nc2nc(N3CCN(CCCCCNc4cccc5c4C(=O)N(C4CCC(=O)NC4=O)C5=O)CC3)ncc2F)ccc1NC(=O)c1ccc(C2=CCCC2)s1` (configuration not stated) the same measures were 58.4%, 64%, 58.7% and 70.1%.
For `COc1cc(Nc2nc(N3CCN(C(=O)CCOCCOCCNc4cccc5c4C(=O)N(C4CCC(=O)NC4=O)C5=O)CC3)ncc2F)ccc1NC(=O)c1ccc(C2=CCCC2)s1` (configuration not stated), the Activity came out at 28.2% in data set [1] and 48.1% in data set [3].
For the compound `COc1cc(Nc2nc(N3CCN(C(=O)CCOCCNc4ccc5c(c4)C(=O)C(C4CCC(=O)NC4=O)C5=O)CC3)ncc2F)ccc1NC(=O)c1ccc(C2=CCCC2)s1` (configuration not stated), the Activity came out at 36.6% in data set [1] and 34% in data set [3].
On the same counts, the results for `COc1cc(Nc2nc(N3CCN(C(=O)CCCCNc4cccc5c4C(=O)N(C4CCC(=O)NC4=O)C5=O)CC3)ncc2F)ccc1NC(=O)c1ccc(C2=CCCC2)s1` (configuration not stated) are 0.1% and 31.7%.
For `COc1cc(Nc2nc(N3CCN(C(=O)CCOCCNc4cccc5c4CC(C4CCC(=O)NC4=O)C5=O)CC3)ncc2F)ccc1NC(=O)c1ccc(C2=CCCC2)s1` (configuration not stated) the same measures were 11.1% and 37%.
For the compound `COc1cc(Nc2nc(N3CCN(C(=O)CCOCCNc4cccc5c4C(=O)N(C4CCC(=O)NC4=O)C5=O)CC3)ncc2F)ccc1NC(=O)c1ccc(C2=CCCC2)s1` (configuration not stated), the Activity in data set [1] is 55.7%; in data set [3], 46.3%. Further, in the data set on SUD4 [2], the inhibition at 1 µM stood at 47%. In the data set on SUD4 [4], the inhibition at 10 µM is 72.9%.
Regarding `COc1cc(Nc2nc(N3CCN(C(=O)CCCCCCNc4cccc5c4C(=O)N(C4CCC(=O)NC4=O)C5=O)CC3)ncc2F)ccc1NC(=O)c1ccc(C2=CCCC2)s1` (configuration not stated), the values for the Activity in data set [1] and in data set [3] were 22.7% and 1.4%, respectively.
As for `COc1cc(Nc2nc(N3CCN(CCOCCNc4ccc5c(c4)C(=O)C(C4CCC(=O)NC4=O)C5=O)CC3)ncc2F)ccc1NC(=O)c1ccc(C2=CCCC2)s1` (configuration not stated), the Activity in [1] amounted to 5.2%; in data set [3], 21.6%.
In the case of `COc1cc(Nc2nc(N3CCN(CCOCCNc4cccc5c4C(=O)N(C4CCC(=O)N(C)C4=O)C5=O)CC3)ncc2F)ccc1NC(=O)c1ccc(C2=CCCC2)s1` (configuration not stated), the values for the Activity in [1] and in data set [3] were 11.9% and 20.7%, respectively. In addition, the IC50 at 6 days in data set [5] and in data set [8] was over 10 µM each time. Besides, the negative-log IC50 (pIC50) in the data set with OCI-Ly1, in the data set on DOHH-2, with SUD4 [10] and with SU-DHL-6 was under 5.00 in each case. Also, the Emax in data set [6] turned out to be 11.6%; in data set [11] it was 29.4%. The DC50 in [7] and in data set [9] was over 10 µM in each case.
`CC[C@H](C)[C@H](NC(=O)[C@H](CO)NC(=O)[C@H](CCCNC(=N)N)NC(=O)CNC(=O)[C@H](C)NC(=O)[C@H](CCC(=O)O)NC(=O)[C@H](CCCCN)NC(=O)[C@@H](NC(=O)[C@@H](NC(=O)[C@H](C)NC(=O)[C@@H](NC(=O)[C@@H](N)CC(C)C)C(C)C)[C@@H](C)O)C(C)C)C(=O)N[C@@H](Cc1cnc[nH]1)C(=O)N[C@@H](CCC(=O)O)C(=O)N[C@H](C(=O)N1CCC[C@H]1C(=O)N[C@@H](CCCNC(=N)N)C(=O)O)[C@@H](C)CC`: the pKd in [12] is 4.52.
As to `COc1cc(Nc2nc(N3CCN(CCOCCNc4cccc5c4CC(C4CCC(=O)NC4=O)C5=O)CC3)ncc2F)ccc1NC(=O)c1ccc(C2=CCCC2)s1` (configuration not stated), the Activity in [1] was found to be 15.7%; in data set [3], 37.1%.
As to `COc1cc(Nc2nc(N3CCN(C(=O)CCCCCNc4cccc5c4C(=O)N(C4CCC(=O)NC4=O)C5=O)CC3)ncc2F)ccc1NC(=O)c1ccc(C2=CCCC2)s1` (configuration not stated), the Activity in data set [1] worked out at 38%; in data set [3], 54.1%. For the same compound, the inhibition at 1 µM with SUD4 [2] amounted to 31%. Also, the inhibition at 10 µM in the data set with SUD4 [4] is 41.3%.
Take `COc1cc(Nc2nc(N3CCN(CCOCCOCCNc4cccc5c4C(=O)N(C4CCC(=O)NC4=O)C5=O)CC3)ncc2F)ccc1NC(=O)c1ccc(C2=CCCC2)s1` (configuration not stated): the Activity came out at 35.6% in data set [1] and 38.3% in [3].
On the same counts, the results for `COc1cc(Nc2nc(N3CCN(CCCCCCNc4cccc5c4C(=O)N(C4CCC(=O)NC4=O)C5=O)CC3)ncc2F)ccc1NC(=O)c1ccc(C2=CCCC2)s1` (configuration not stated) are 42.9% and 55.8%.
On the same counts, the results for `COc1cc(Nc2nc(N3CCN(C(=O)CCC4CCN(c5cccc6c5C(=O)N(C5CCC(=O)NC5=O)C6=O)CC4)CC3)ncc2F)ccc1NC(=O)c1ccc(C2=CCCC2)s1` (configuration not stated) are 23.1% and 24.1%.
As for `COc1cc(Nc2nc(N3CCN(CCOCCOc4cccc5c4C(=O)C(C4CCC(=O)NC4=O)C5=O)CC3)ncc2F)ccc1NC(=O)c1ccc(C2=CCCC2)s1` (configuration not stated), the Activity in data set [1] is 13.5%; in data set [3], 26.3%.
Consider `COc1cc(Nc2nc(N3C[C@@H](C)N[C@@H](C)C3)ncc2F)ccc1NC(=O)c1ccc(C2=CCCC2)s1`, for which the outcome in the data set on SUD4 [13] and with SUD4 [14] was inactive.
For `COc1cc(Nc2nc(N3CCN(C(=O)CCOCCNc4cc5c(cc4F)C(=O)C(C4CCC(=O)NC4=O)C5=O)CC3)ncc2F)ccc1NC(=O)c1ccc(C2=CCCC2)s1` (configuration not stated), the Activity in data set [1] and in data set [3] was 0% throughout.
On to `COc1cc(Nc2nc(N3CCN(C(=O)CCOCCOCCOCCNc4cccc5c4C(=O)N(C4CCC(=O)NC4=O)C5=O)CC3)ncc2F)ccc1NC(=O)c1ccc(C2=CCCC2)s1` (configuration not stated), for which the values for the Activity in [1] and in data set [3] were 34.7% and 41.2%, respectively.
With `COc1cc(Nc2nc(N3CCN(C(=O)CC4CCN(c5cccc6c5C(=O)N(C5CCC(=O)NC5=O)C6=O)CC4)CC3)ncc2F)ccc1NC(=O)c1ccc(C2=CCCC2)s1` (configuration not stated), the Activity turned out to be 7.1% in data set [1] and 2.7% in data set [3].
On the same counts, the results for `COc1cc(Nc2nc(N3CCN(CCCCNc4cccc5c4C(=O)N(C4CCC(=O)NC4=O)C5=O)CC3)ncc2F)ccc1NC(=O)c1ccc(C2=CCCC2)s1` (configuration not stated) are 40.6% and 36.3%.
Consider `COc1cc(Nc2nc(N3CCN(C(=O)CCOCCOCCOCCOCCNc4cccc5c4C(=O)N(C4CCC(=O)NC4=O)C5=O)CC3)ncc2F)ccc1NC(=O)c1ccc(C2=CCCC2)s1` (configuration not stated), for which, in [1], the Activity is 12.2%.

(Values after ChEMBL document CHEMBL5614419, “Discovery of novel BCL6-Targeting PROTACs with effective antitumor activities against DLBCL in vitro and in vivo” (Eur J Med Chem, 2024).)
